Results as given in patent US7511041B2, “Fused azole-pyrimidine derivatives” (Bayer Pharmaceuticals Corporation, priority 2002, dated 2009).
Counter-ions that a name gives are not always drawn. Like-named read-outs stand apart in the source and are kept apart here.

Assays:
[1] = molecular target: T1, Recombinant human PI3Kγ (full length human PI3K p110γ) (Homo sapiens, UniProt P48736); test: Kinase assay of PI3Kγ (solid-phase lipid kinase assay); assay type: biochemical
T1 construct: full length human PI3K p110γ fused with a His6-tag at the C-terminus; His6 (C); purchased ALEXIS BIOCHEMICALS #201-055-C010; host or cells: S. frugiperda 9 insect cells
T1 sequence (P48736 whole entry, the tested form may be a part): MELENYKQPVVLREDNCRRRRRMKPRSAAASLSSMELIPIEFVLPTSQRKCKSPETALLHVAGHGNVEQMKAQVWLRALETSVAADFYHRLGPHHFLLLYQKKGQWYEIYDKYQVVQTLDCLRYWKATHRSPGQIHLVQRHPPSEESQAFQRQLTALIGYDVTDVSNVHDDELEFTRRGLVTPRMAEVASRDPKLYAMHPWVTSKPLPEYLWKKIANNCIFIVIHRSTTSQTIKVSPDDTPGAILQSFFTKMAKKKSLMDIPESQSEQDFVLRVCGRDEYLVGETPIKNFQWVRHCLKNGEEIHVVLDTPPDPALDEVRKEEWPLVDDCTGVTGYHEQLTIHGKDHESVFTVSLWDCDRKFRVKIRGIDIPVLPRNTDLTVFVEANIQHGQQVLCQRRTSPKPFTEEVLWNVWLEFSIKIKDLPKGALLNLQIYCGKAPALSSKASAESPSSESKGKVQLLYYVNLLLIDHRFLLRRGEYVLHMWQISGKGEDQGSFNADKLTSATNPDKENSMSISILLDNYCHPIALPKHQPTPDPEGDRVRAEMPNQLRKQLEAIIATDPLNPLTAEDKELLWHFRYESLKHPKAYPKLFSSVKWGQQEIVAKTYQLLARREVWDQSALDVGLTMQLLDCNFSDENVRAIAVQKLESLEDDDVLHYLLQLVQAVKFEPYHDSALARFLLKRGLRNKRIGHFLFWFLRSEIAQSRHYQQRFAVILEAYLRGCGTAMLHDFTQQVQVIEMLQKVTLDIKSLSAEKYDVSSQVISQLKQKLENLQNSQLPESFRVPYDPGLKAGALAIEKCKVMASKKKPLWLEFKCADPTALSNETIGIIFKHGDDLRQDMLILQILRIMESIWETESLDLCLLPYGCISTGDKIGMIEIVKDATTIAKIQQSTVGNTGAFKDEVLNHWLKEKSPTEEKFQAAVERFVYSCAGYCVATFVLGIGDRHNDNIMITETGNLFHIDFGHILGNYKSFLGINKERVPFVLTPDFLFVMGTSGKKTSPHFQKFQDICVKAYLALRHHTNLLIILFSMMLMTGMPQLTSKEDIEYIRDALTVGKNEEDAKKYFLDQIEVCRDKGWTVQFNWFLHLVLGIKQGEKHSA

[2] = molecular target: PI3Kβ (heterocomplex of p110β and GST-p85α) (UniProt Q9Z1L0); test: Isozyme selectivity test: kinase assay of PI3Kβ; assay type: biochemical; details: activity class of IC50, read-out: In vitro PI3K-β inhibitory activity
Experimental: [Isozyme Selectivity Test in PI3K]
{Determination of IC50 Values of Compounds in Kinase Assay of PI3Kβ}
Recombinant baculovirus of PI3Kβ p110β and GST-p85α were obtained from Dr. Katada (University of Tokyo). Recombinant PI3K heterocomplex of p110β and GST-p85α were co-expressed in insect cells according to manufacture's instruction (Pharmingen, San Diego, Calif.), and purified with glutathione affinity column. Kinase assay of PI3Kβ was prepared in a similar manner as described in the part of [Determination of IC50 values of compounds in kinase assay of PI3Kγ].

[3] = activity class of IC50, read-out: In vitro PI3K-γ inhibitory activity
[4] = in vitro PI3K-γ inhibitory activity, class symbols A-D, read-out: in vitro PI3K-gamma

Row | Structure (SMILES) | IC50 [1, 3] | melting point | IC50 [1, 4] | IC50 [2] | IC50 ([2]; hydrochloride)
1 | COc1c(O)ccc2c1N=C(/C=C(\O)c1cccnc1)N1CCN=C21 [Example 1-4, 5-(2-Hydroxy-2-pyridin-3-ylvinyl)-7-methoxy-2,3-dihydroimidazo[1,2-c]quinazolin-8-ol hydrochloride] | < 100 nM |  |  | 500 to 2000 nM | 
2 | CC(=O)Nc1ccc(C(=O)NC2=Nc3cc(N4CCOCC4)ccc3C3=NCCN23)cn1 [Example 2-4, 6-(Acetamido)-N-[8-(morpholin-4-yl)-2,3-dihydroimidazo[1,2-c]quinazolin-5-yl]nicotinamide hydrochloride] |  |  |  |  | 100 to 500 nM
3 | O=C(NC1=Nc2ccccc2C2=NCCN12)c1csnn1 [Example 2-307] |  | 219 °C (dec.) | 500 to 2000 nM |  | 
4 | Cc1nc2cc(C(=O)NC3=Nc4ccccc4C4=NCCN34)ccc2[nH]1.Cl [Example 2-308] |  | 344 °C (dec.) | 100 to 500 nM |  | 
5 | O=C(NC1=Nc2ccccc2C2=NCCN12)c1ccc2[nH]nnc2c1.O=C(O)C(F)(F)F [Example 2-310] |  | 252 °C (dec.) | 100 to 500 nM |  | 
6 | Cn1cc(C(=O)NC2=Nc3ccccc3C3=NCCN23)c2ccccc21 [Example 2-315] |  | 288 to 289 °C | > 2000 nM |  | 
7 | Cl.O=C(NC1=Nc2ccccc2C2=NCCN12)c1cccc2cccnc12 [Example 2-318] |  | 316 °C (dec.) | > 2000 nM |  | 
8 | O=C(NC1=Nc2ccccc2C2=NCCN12)c1csc(-c2cccnc2)n1 [Example 2-319] |  | 260 to 261 °C | > 2000 nM |  | 
9 | O=C(NC1=Nc2ccccc2C2=NCCN12)c1csc(-c2ccncc2)n1 [Example 2-321] |  | 281 °C (dec.) | > 2000 nM |  | 
10 | O=C(COc1ccccc1)NC1=Nc2ccccc2C2=NCCN12 [Example 2-325] |  | 149 to 150 °C | > 2000 nM |  | 
11 | CC(C)CC(=O)NC1=Nc2ccccc2C2=NCCN12 [Example 2-329] |  | 154 °C (dec.) | > 2000 nM |  | 
12 | CC(C)(C)C(=O)NC1=Nc2ccccc2C2=NCCN12 [Example 2-331] |  | 135 to 136 °C | > 2000 nM |  | 
13 | O=C(NC1=Nc2ccccc2C2=NCCN12)C(Cl)(Cl)Cl [Example 2-332] |  | 194 °C (dec.) | 500 to 2000 nM |  | 
14 | O=C(NC1=Nc2ccccc2C2=NCCN12)C(F)(F)C(F)(F)F [Example 2-333] |  | 210 to 211 °C | > 2000 nM |  | 
15 | O=C(NC1=Nc2ccccc2C2=NCCN12)C1CC1 [Example 2-334] |  | 164 to 165 °C | > 2000 nM |  | 
16 | O=C(NC1=Nc2ccccc2C2=NCCN12)C1CCCCN1C(=O)OCc1ccccc1 (stereo not shown) [Example 2-337] |  | 119 to 120 °C | > 2000 nM |  | 
17 | CC(C)(C)OC(=O)N1CCCC(C(=O)NC2=Nc3ccccc3C3=NCCN23)C1 (stereo not shown) [Example 2-338] |  | 147 to 148 °C | > 2000 nM |  | 
18 | CN(C)c1ccc2c(c1)C1=NCCN1C(NC(=O)c1cccnc1)=N2 [Example 2-345] |  | 269 °C | 500 to 2000 nM |  | 
19 | CN(C)c1ccc2c(c1)C1=NCCN1C(NC(=O)c1cccs1)=N2 [Example 2-346] |  | 272 °C | > 2000 nM |  | 
20 | O=C(NC1=Nc2ccc(Br)cc2C2=NCCN12)c1cccs1 [Example 2-351] |  | 232 °C | > 2000 nM |  | 
21 | O=C(NC1=Nc2cccc(Cl)c2C2=NCCN12)c1cccnc1 [Example 2-357] |  | 243 °C | 500 to 2000 nM |  | 
22 | O=C(NC1=Nc2ccc([N+](=O)[O-])cc2C2=NCCN12)c1cccnc1.O=C(O)C(F)(F)F [Example 2-362] |  | 224 °C | 500 to 2000 nM |  | 
23 | C[C@H]1CN2C(NC(=O)c3cccnc3)=Nc3ccccc3C2=N1.Cl [Example 2-363] |  | 204 °C (dec.) | > 2000 nM |  | 
24 | CCC(C)[C@H]1CN2C(NC(=O)c3cccnc3)=Nc3ccccc3C2=N1.Cl (stereo partly shown) [Example 2-364] |  | 230 to 240 °C | > 2000 nM |  | 
25 | Cl.NC(=O)C1CN2C(NC(=O)c3cccnc3)=Nc3ccccc3C2=N1 (stereo not shown) [Example 2-365] |  | 274 °C (dec.) | > 2000 nM |  | 
26 | O=C(Nc1nc2ccccc2c2nccn12)c1cccnc1 [Example 4-1, N-Imidazo[1,2-c]quinazolin-5-ylnicotinamide] | 500 to 2000 nM | 223 to 224 °C (dec.) |  |  | 

Now from value to molecule, other results behind:

Row | IC50 [1, 3] | melting point | IC50 [1, 4] | Structure (SMILES) | IC50 [2] | IC50 ([2]; hydrochloride)
27 |  | 250 to 253 °C | > 2000 nM | CC(C)n1c(C(F)(F)F)nc2cc(C(=O)NC3=Nc4ccccc4C4=NCCN34)ccc21 [Example 2-309] |  | 
28 |  | 202 to 203 °C | > 2000 nM | CC(C)n1nnc2cc(C(=O)NC3=Nc4ccccc4C4=NCCN34)ccc21 [Example 2-311] |  | 
29 |  | 303 to 305 °C | > 2000 nM | O=C(NC1=Nc2ccccc2C2=NCCN12)c1ccc2ncsc2c1 [Example 2-312] |  | 
30 |  | 314 °C (dec.) | 500 to 2000 nM | Cl.O=C(NC1=Nc2ccccc2C2=NCCN12)c1ccc2ncsc2c1 [Example 2-313] |  | 
31 |  | 259 to 260 °C | > 2000 nM | Cn1c(C(=O)NC2=Nc3ccccc3C3=NCCN23)cc2ccccc21 [Example 2-314] |  | 
32 |  | 263 to 264 °C | > 2000 nM | O=C(NC1=Nc2ccccc2C2=NCCN12)c1cnc2ccccc2c1 [Example 2-316] |  | 
33 |  | 319 °C (dec.) | 100 to 500 nM | Cl.O=C(NC1=Nc2ccccc2C2=NCCN12)c1cnc2ccccc2c1 [Example 2-317] |  | 
34 |  | 167 to 168 °C | > 2000 nM | COc1ccc(CC(=O)NC2=Nc3ccccc3C3=NCCN23)cc1 [Example 2-323] |  | 
35 |  | 122 to 123 °C | > 2000 nM | O=C(Cc1cccs1)NC1=Nc2ccccc2C2=NCCN12 [Example 2-324] |  | 
36 |  | 189 °C | > 2000 nM | CC(=O)NC1=Nc2ccccc2C2=NCCN12 [Example 2-326] |  | 
37 |  | 121 to 122 °C | > 2000 nM | CCCC(=O)NC1=Nc2ccccc2C2=NCCN12 [Example 2-328] |  | 
38 |  | 104 to 105 °C | > 2000 nM | CC(C)C(=O)NC1=Nc2ccccc2C2=NCCN12 [Example 2-330] |  | 
39 |  | 170 to 172 °C | > 2000 nM | O=C(NC1=Nc2ccccc2C2=NCCN12)C1CCCCC1 [Example 2-335] |  | 
40 |  | 179 to 180 °C | > 2000 nM | O=C(NC1=Nc2ccccc2C2=NCCN12)C1CCNCC1 [Example 2-339] |  | 
41 |  | 111 to 112 °C | > 2000 nM | O=C(NC1=Nc2ccccc2C2=NCCN12)C1CCN(C(=O)OCc2ccccc2)CC1 [Example 2-341] |  | 
42 |  | 240 to 241 °C | > 2000 nM | COc1cc2c(cc1OC)C1=NCCN1C(NC(C)=O)=N2 [Example 2-343] |  | 

Row | IC50 [1, 3] | melting point | IC50 [1, 4] | Structure (SMILES) | IC50 [2] | IC50 ([2]; hydrochloride)
43 |  | 224 to 225 °C | > 2000 nM | CCC(=O)NC1=Nc2cc(OC)c(OC)cc2C2=NCCN12 [Example 2-344] |  | 
44 |  | 244 °C | > 2000 nM | O=C(NC1=Nc2ccc(N3CCOCC3)cc2C2=NCCN12)c1cccnc1 [Example 2-347] |  | 
45 |  | 124 °C | > 2000 nM | O=C(NC1=Nc2ccc(N3CCOCC3)cc2C2=NCCN12)c1cccs1 [Example 2-348] |  | 
46 |  | 226 °C | 100 to 500 nM | O=C(NC1=Nc2cc(C(F)(F)F)ccc2C2=NCCN12)c1cccs1 [Example 2-349] |  | 
47 |  | 292 °C | 500 to 2000 nM | Cl.O=C(NC1=Nc2cc(C(F)(F)F)ccc2C2=NCCN12)c1cccs1 [Example 2-350] |  | 
48 |  | 275 °C | 500 to 2000 nM | Cl.O=C(NC1=Nc2ccc(Br)cc2C2=NCCN12)c1cccs1 [Example 2-352] |  | 
49 |  | 254 °C | 100 to 500 nM | O=C(NC1=Nc2cc(Cl)ccc2C2=NCCN12)c1cccnc1 [Example 2-353] |  | 
50 |  | 228 °C | 500 to 2000 nM | O=C(NC1=Nc2cc(Cl)ccc2C2=NCCN12)c1cccs1 [Example 2-354] |  | 
51 |  | 174 °C | 500 to 2000 nM | O=C(NC1=Nc2ccc(Cl)cc2C2=NCCN12)c1cccs1 [Example 2-355] |  | 
52 |  | 276 °C | 100 to 500 nM | Cl.O=C(NC1=Nc2ccc(Cl)cc2C2=NCCN12)c1cccs1 [Example 2-356] |  | 
53 |  | 233 °C | > 2000 nM | O=C(NC1=Nc2cccc(Cl)c2C2=NCCN12)c1cccs1 [Example 2-358] |  | 
54 |  | 227 °C | 500 to 2000 nM | Cl.O=C(NC1=Nc2cccc(Cl)c2C2=NCCN12)c1cccs1 [Example 2-359] |  | 
55 |  | 242 °C | 500 to 2000 nM | O=C(NC1=Nc2ccc(F)cc2C2=NCCN12)c1cccnc1 [Example 2-360] |  | 
56 |  | 270 °C (dec.) | > 2000 nM | C[C@@H]1CN=C2c3ccccc3N=C(NC(=O)c3cccnc3)N21.Cl [Example 2-366] |  | 
57 |  | 240 °C (dec.) | < 100 nM | COc1ccc2c(c1OC)N=C(NC(=O)c1cncc(O)c1)N1CCN=C21.Cl [Example 2-368] |  | 
58 | > 2000 nM | 128 °C |  | O/C(=C\c1nc2ccccc2c2nccn12)c1cccs1 [Example 3-1, (Z)-2-Imidazo[1,2-c]quinazolin-5-yl-1-(2-thienyl)ethenol] |  | 
